Source: PubChem BioAssay (NCI)
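Step 1: Grow cells in 96-well plates. Step 2: Expose to compound for 48 hours at 5 concentrations. Step 3: Interpolate endpoints linearly; if unreached, use highest concentration. GI50: concentration for 50% inhibition of growth. TGI denotes the concentration required for complete inhibition of growth.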

Columns and labels:
Assay in all cases: NCI anticancer screen, dose series, 48 h
SNB-75 CNS = system: SNB-75 CNS
OVCAR-5 ovarian = system: OVCAR-5 ovarian
SW-620 colon = system: SW-620 colon
SK-OV-3 ovarian = system: SK-OV-3 ovarian
KM12 colon = system: KM12 colon
DU-145 prostate = system: DU-145 prostate
UACC-62 melanoma = system: UACC-62 melanoma
A498 renal = system: A498 renal
MDA-N = system: MDA-N
PC-3 prostate = system: PC-3 prostate
LOX IMVI melanoma = system: LOX IMVI melanoma
OVCAR-4 ovarian = system: OVCAR-4 ovarian
HOP-62 NSCLC = system: HOP-62 NSCLC
M14 melanoma = system: M14 melanoma
CCRF-CEM leukemia = system: CCRF-CEM leukemia
SF-295 CNS = system: SF-295 CNS
UO-31 renal = system: UO-31 renal
NCI-H460 lung = system: NCI-H460 lung
A549 NSCLC = system: A549 NSCLC
K-562 leukemia = system: K-562 leukemia
UACC-257 melanoma = system: UACC-257 melanoma
SF-268 CNS = system: SF-268 CNS
SN12C renal = system: SN12C renal
COLO 205 colon = system: COLO 205 colon
RPMI-8226 leukemia = system: RPMI-8226 leukemia
SNB-19 CNS = system: SNB-19 CNS
SR leukemia = system: SR leukemia
NCI-H23 lung = system: NCI-H23 lung
EKVX NSCLC = system: EKVX NSCLC
MDA-MB-435 = system: MDA-MB-435
NCI/ADR-RES ovarian = system: NCI/ADR-RES ovarian
SF-539 CNS = system: SF-539 CNS
OVCAR-8 ovarian = system: OVCAR-8 ovarian
MOLT-4 leukemia = system: MOLT-4 leukemia
ACHN renal = system: ACHN renal
HCT-15 colon = system: HCT-15 colon
SK-MEL-5 melanoma = system: SK-MEL-5 melanoma
TK-10 renal = system: TK-10 renal
SK-MEL-2 melanoma = system: SK-MEL-2 melanoma
T-47D breast = system: T-47D breast
SK-MEL-28 melanoma = system: SK-MEL-28 melanoma
MDA-MB-231 breast = system: MDA-MB-231 breast
HL-60(TB) leukemia = system: HL-60(TB) leukemia
U251 CNS = system: U251 CNS
HT29 colon = system: HT29 colon
NCI-H522 lung = system: NCI-H522 lung
HCT-116 colon = system: HCT-116 colon
MALME-3M melanoma = system: MALME-3M melanoma
HCC-2998 colon = system: HCC-2998 colon
MCF7 breast = system: MCF7 breast
OVCAR-3 ovarian = system: OVCAR-3 ovarian
NCI-H226 lung = system: NCI-H226 lung
RXF 393 renal = system: RXF 393 renal
IGROV1 ovarian = system: IGROV1 ovarian
HS 578T breast = system: HS 578T breast
CAKI-1 renal = system: CAKI-1 renal
786-0 renal = system: 786-0 renal
HOP-92 NSCLC = system: HOP-92 NSCLC
BT-549 breast = system: BT-549 breast

SMILES: CC(=O)O[C@H]1C(=O)[C@@]2(C)[C@H]([C@H](OC(=O)c3ccccc3)[C@]3(O)C[C@H](OC(=O)[C@H](O)[C@@H](NC(=O)c4ccoc4)c4ccccc4)C(C)=C1C3(C)C)[C@]1(OC(C)=O)CO[C@@H]1C[C@@H]2O
- GI50 (SNB-75 CNS): 0.0531 µM
- TGI (OVCAR-5 ovarian): 0.091 µM
- TGI (SW-620 colon): > 100 µM
- TGI (SK-OV-3 ovarian): 32.7 µM
- TGI (KM12 colon): 14.1 µM
- TGI (DU-145 prostate): > 100 µM
- TGI (UACC-62 melanoma): 31.9 µM
- TGI (A498 renal): 0.698 µM
- TGI (MDA-N): 0.0166 µM
- TGI (PC-3 prostate): > 100 µM
- TGI (LOX IMVI melanoma): > 100 µM
- TGI (OVCAR-4 ovarian): > 100 µM
- TGI (HOP-62 NSCLC): 16.4 µM
- TGI (M14 melanoma): 0.661 µM
- GI50 (CCRF-CEM leukemia): 0.0334 µM
- TGI (CCRF-CEM leukemia): > 100 µM
- TGI (SF-295 CNS): 22.9 µM
- TGI (UO-31 renal): > 100 µM
- TGI (NCI-H460 lung): 28 µM
- TGI (A549 NSCLC): > 100 µM
- GI50 (K-562 leukemia): 0.0337 µM
- TGI (K-562 leukemia): > 100 µM
- TGI (UACC-257 melanoma): 68.5 µM
- TGI (SF-268 CNS): > 100 µM
- TGI (SN12C renal): > 100 µM
- TGI (COLO 205 colon): 16.9 µM
- TGI (RPMI-8226 leukemia): > 100 µM
- TGI (SNB-19 CNS): > 100 µM
- TGI (SR leukemia): 47 µM
- TGI (NCI-H23 lung): 31.2 µM
- GI50 (EKVX NSCLC): 17.2 µM
- TGI (EKVX NSCLC): > 100 µM
- TGI (MDA-MB-435): 0.039 µM
- TGI (NCI/ADR-RES ovarian): > 100 µM
- TGI (SF-539 CNS): 0.257 µM
- TGI (OVCAR-8 ovarian): 47.8 µM
- GI50 (MOLT-4 leukemia): 0.042 µM
- TGI (MOLT-4 leukemia): > 100 µM
- GI50 (ACHN renal): 0.0584 µM
- TGI (ACHN renal): > 100 µM
- GI50 (HCT-15 colon): 0.907 µM
- TGI (HCT-15 colon): > 100 µM
- TGI (SK-MEL-5 melanoma): 0.399 µM
- GI50 (TK-10 renal): 0.164 µM
- TGI (TK-10 renal): 40.4 µM
- GI50 (SK-MEL-2 melanoma): 27.8 µM
- GI50 (T-47D breast): 26.3 µM
- TGI (T-47D breast): > 100 µM

SMILES: CCOC(=O)C(NC(=O)CC)(C(F)(F)F)P(=O)(OCC)OCC (centres undefined)
- TGI (SK-MEL-28 melanoma): > 100 µM
- TGI (SNB-75 CNS): > 100 µM
- TGI (MDA-MB-231 breast): > 100 µM
- TGI (HL-60(TB) leukemia): > 100 µM
- TGI (SK-OV-3 ovarian): > 100 µM
- TGI (DU-145 prostate): > 100 µM
- TGI (UACC-62 melanoma): > 100 µM
- TGI (A498 renal): > 100 µM
- TGI (MDA-N): > 100 µM
- TGI (HOP-62 NSCLC): > 100 µM
- TGI (M14 melanoma): > 100 µM
- TGI (CCRF-CEM leukemia): > 100 µM
- TGI (U251 CNS): > 100 µM
- TGI (UO-31 renal): > 100 µM
- TGI (K-562 leukemia): > 100 µM
- TGI (SF-268 CNS): > 100 µM
- TGI (SN12C renal): > 100 µM
- TGI (HT29 colon): > 100 µM
- TGI (RPMI-8226 leukemia): > 100 µM
- TGI (SR leukemia): > 100 µM
- TGI (EKVX NSCLC): > 100 µM
- TGI (NCI-H522 lung): > 100 µM
- TGI (MDA-MB-435): > 100 µM
- TGI (SF-539 CNS): > 100 µM
- TGI (MOLT-4 leukemia): > 100 µM
- TGI (ACHN renal): > 100 µM
- TGI (HCT-116 colon): > 100 µM
- TGI (HCT-15 colon): > 100 µM
- TGI (MALME-3M melanoma): > 100 µM
- TGI (HCC-2998 colon): > 100 µM
- TGI (T-47D breast): > 100 µM
- TGI (MCF7 breast): > 100 µM

SMILES: CC(C)(C)C1CCC2c3c([nH]c4ccccc34)C3C(=O)N(c4ccc(C(=O)O)cc4)C(=O)C3C2C1 (centres undefined)
- TGI (SK-MEL-28 melanoma): 30.3 µM
- TGI (OVCAR-3 ovarian): 25.8 µM
- TGI (MDA-MB-231 breast): 29.2 µM
- TGI (HL-60(TB) leukemia): 15.4 µM
- TGI (OVCAR-5 ovarian): 36.5 µM
- TGI (NCI-H226 lung): 40.3 µM
- TGI (SW-620 colon): 26.5 µM
- TGI (SK-OV-3 ovarian): 32.1 µM
- TGI (DU-145 prostate): 34.7 µM
- TGI (UACC-62 melanoma): 30.4 µM
- TGI (A498 renal): 34.6 µM
- TGI (MDA-N): 24.7 µM
- TGI (PC-3 prostate): 26.3 µM
- TGI (LOX IMVI melanoma): 28.8 µM
- TGI (HOP-62 NSCLC): 15.8 µM
- TGI (M14 melanoma): 37.3 µM
- TGI (CCRF-CEM leukemia): 12.5 µM
- TGI (RXF 393 renal): 29.5 µM
- TGI (SF-295 CNS): 23.4 µM
- TGI (U251 CNS): 26.2 µM
- TGI (UO-31 renal): 30.4 µM
- TGI (NCI-H460 lung): 35.4 µM
- TGI (A549 NSCLC): 25.8 µM
- TGI (K-562 leukemia): 17.9 µM
- TGI (UACC-257 melanoma): 28.3 µM
- TGI (SF-268 CNS): 28.4 µM
- TGI (SN12C renal): 25.6 µM
- TGI (HT29 colon): 28.7 µM
- TGI (IGROV1 ovarian): 40.1 µM
- TGI (COLO 205 colon): 40.4 µM
- TGI (RPMI-8226 leukemia): > 100 µM
- TGI (SNB-19 CNS): 34.6 µM
- TGI (HS 578T breast): 39 µM
- TGI (SR leukemia): > 100 µM
- TGI (NCI-H23 lung): 40.8 µM
- TGI (EKVX NSCLC): 39.7 µM
- TGI (NCI-H522 lung): 41.6 µM
- TGI (MDA-MB-435): 11.1 µM
- TGI (NCI/ADR-RES ovarian): 36 µM
- TGI (CAKI-1 renal): 31 µM
- TGI (SF-539 CNS): 34.8 µM
- TGI (OVCAR-8 ovarian): 26.6 µM
- TGI (ACHN renal): 24.5 µM
- TGI (HCT-116 colon): 29.7 µM
- TGI (HCT-15 colon): 25 µM
- TGI (SK-MEL-5 melanoma): 25.7 µM
- TGI (TK-10 renal): 31.3 µM
- TGI (786-0 renal): 29.1 µM
- TGI (SK-MEL-2 melanoma): 29.1 µM
- TGI (MALME-3M melanoma): 28.9 µM
- TGI (HCC-2998 colon): 29 µM
- TGI (HOP-92 NSCLC): 25.7 µM
- TGI (BT-549 breast): 30.1 µM
- TGI (MCF7 breast): 26.4 µM
